Source: patent EP0684043A1, “Therapeutic composition for corneal impairment containing a phosphonic acid diester compound” (Senju Pharmaceutical Co., Ltd., priority 1994, dated 1995)
Where two headings read alike, the source gives them in different places.

What was measured:
[1] = test system: UV-induced corneal lesions in rabbits; test: Inhibitory effect on UV-induced corneal lesions in rabbits (fluorescein penetration into cornea, anterior fluorophotometer); type: in vivo, White rabbits; conditions: rabbit cornea
Method: The inhibitory effect of the present compound on UV-induced corneal lesions in rabbits was evaluated. Test substance: L-Ascorbyl DL-α-tocopheryl phosphate potassium (abbreviation: EPC-K). Method: White rabbits were used; 4 animals assigned to the present compound treatment group and 3 assigned to a control group (the nictitating membrane was excised beforehand).
For UV irradiation, Hoya-Schott's HLS200U (dominant wavelength 365 nm) equipped with a 200 W mercury-xenon lamp as the light source was used. Ushio Electric's Unimeter UIT-101 was used for the determination of luminous energy.
One eye of each rabbit was kept open with an eye speculum and set at a distance of 43 cm from the light source so that the irradiation energy would be 0.024 J/cm². The eye was irradiated with ultraviolet light under the conditions of 0.2 mW/cm² and 2 minutes. The fellow eye was protected with an eye patch.
After UV irradiation, the vehicle (2.6% concentrated glycerin solution) was instilled in the eyes of rabbits in the control group 3 times daily and 0.1% EPC-K (dissolved in 2.6% concentrated glycerin solution) was instilled as often into the eyes of rabbits in the present compound treatment group.
The degree of rabbit corneal lesion was evaluated by the following method^1). Using fluorescein as a tracer, the fluorescence intensity of the tracer dye penetrating into the cornea within a predetermined region was measured for a quantitative assessment of the barrier function of the corneal epithelium (The corneal epithelium has a barrier function^2) to restrict penetration of any substance into the deep layer of the cornea and when an erosion or other injury occurs in the corneal epithelium, this barrier function is compromised so that the penetration of the substance into the depth of the cornea is increased). Thus, at 0, 0.5, 6, 12, 24, 48 and 72 hours after UV irradiation, fluorescein sodium was instilled into the eye and the fluorescence intensity of the fluorescein sodium that had penetrated into the cornea was measured with a Kowa anterior fluorophotometer. 1) Norihiko Yokoi et al.: Quantitative evaluation of corneal epithelial barrier function with a new fluorophotometer, Journal of the Eye, 10(8); 1357-1363, 1993 2) Klyce SD and Crosson CE: Transport processes across the rabbit corneal epithelium, a review. Curr Eye Res 4 4;427-432, 1985.

Acute toxicity (LD50) = conditions: rat, in vivo, rats, read-out: LD₅₀
Method: The compound for use as an active ingredient in the therapeutic composition for corneal impairment according to this invention is a very safe substance with an extremely low toxic potential and, as such, can be used with advantage for the purposes of this invention. [e.g. the LD₅₀ values of L-ascorbyl DL-α-tocopheryl phosphate potassium (hereinafter referred to briefly as EPC-K) ≧ 5 g/kg p.o. (rats) and ≧ 100 mg/kg i.v. (rats)].

`Cc1c(C)c2c(c(C)c1OP(=O)(O)OC1=C(O)[C@@H]([C@@H](O)CO)OC1=O)CCC(C)(CCCC(C)CCCC(C)CCCC(C)C)O2` (mixture of isomers) [EPC-K, L-ascorbyl DL-α-tocopheryl phosphate potassium] showed an intensity of fluorescence ([1]; 0 hours after UV irradiation, 0.1% EPC-K in 2.6% concentrated glycerin solution instilled 3 times daily, control group 457) of 259, an intensity of fluorescence ([1]; 0.5 hours after UV irradiation, 0.1% EPC-K instilled 3 times daily, control group 791) of 447 and an intensity of fluorescence ([1]; 6 hours after UV irradiation, 0.1% EPC-K instilled 3 times daily, control group 899) of 695. For the same compound, the intensity of fluorescence ([1]; 12 hours after UV irradiation, 0.1% EPC-K instilled 3 times daily, control group 3813) was 1038, the intensity of fluorescence ([1]; 24 hours after UV irradiation, 0.1% EPC-K instilled 3 times daily, control group 3860) was 875 and the intensity of fluorescence ([1]; 48 hours after UV irradiation, 0.1% EPC-K instilled 3 times daily, control group 870) was 343. For the same compound, the intensity of fluorescence ([1]; 72 hours after UV irradiation, 0.1% EPC-K instilled 3 times daily, control group 655) was 311, the LD50 (Acute toxicity (LD50); iv) was ≥ 100 mg/kg and the LD50 (Acute toxicity (LD50); po) was ≥ 5000 mg/kg.
